Data as given in US11504368B2, “2,6-diamino-3,4-dihydropyrimidin-4-one derivatives and use thereof in therapy” (THOMAS HELLEDAYS STIFTELSE FÖR MEDICINSK FORSKNING, priority 2018, dated 2022).

Key:
MTHFD2 [1] = molecular target: T1, MTHFD2 (Homo sapiens (Human), UniProt P13995); experiment: Inhibition of MTHFD2 (NAD(P)H-Glo luminescence); assay type: biochemical; conditions: 3.4 nmol/L MTHFD2, 5 μmol/L folitixorin, 250 μmol/L NAD+; mean of at least 3 independent measurements
Experimental: DMSO was used as negative control. The serial dilution in DMSO, from compound DMSO stock solution, was created by dispensing from a 384-well low dead volume microplate (LP-0200, Labcyte) and a 384-well polypropylene microplate 2.0 (PP-0200, Labcyte). A total of 2.5 μL MTHFD2 was preincubated with compound or DMSO for 10 min. The enzymatic reaction was initiated by adding 2.5 μL folitixorin (F680350, Toronto Research Chemicals). For background control, 5 μL buffer was added to the well. […] The final concentrations of all reagents in a total assay volume of 5 μL per well were 50 mmol/L Tris-HCl at pH 8.0, 100 mmol/L NaCl, 5 mmol/L MgCl2, 25 mmol/L Na3PO4 at pH 8.0, 0.005% (v/v) Tween-20, and 2 mmol/L 2-mercaptoethanol. After 15 min reaction time, 5 μL NAD(P)H-Glo detection reagent (G9061 or G9062, Promega) was dispensed in all wells and the plate was incubated for 60 min. Luminescence was measured on a plate reader (Envision, PerkinElmer or Sense, Hidex). The light signal produced is proportional to the amount of NAD(P)H in the sample. IC50 values were determined by fitting a four parameter sigmoidal curve model using XLfit (IDBS). Reported IC50 values are the mean of at least 3 independent measurements.

HL-60 cells = experiment: Cancer cell viability assay (HL-60, resazurin); assay type: cell-based; conditions: Homo sapiens, 96 h, mean of at least 3 independent measurements, read-out: HL60 cell proliferation inhibition EC50
Experimental: HL-60 cells (human promyelocytic leukemia cells) were seeded in a 384-well plate at a density of 2,000 cells per well in 50 μL induction medium and treated with vehicle (DMSO) or an 11-point concentration range with 3-fold dilution in concentration of compound. Each assay point was run in duplicate. Wells without cells but with DMSO were used as negative controls. The cells were left to proliferate over a period of 96 h, in an incubator at 37° C. and 5% CO2, followed by an addition of 10 μL […] resazurin sodium salt (199303, Sigma-Aldrich) dissolved in DPBS (14190, Gibco). After 4 h of incubation at 37° C. and 5% CO2, the fluorescent signal was measured using an excitation wavelength of 544 nm and an emission wavelength of 595 nm in a Hidex Sense plate reader. Cell plates were incubated in boxes with damp paper tissues to avoid evaporation. All additions, except compound and DMSO, were done using the Multidrop Combi (Thermo Fisher Scientific). DMSO and compounds were pre-dispensed with an Echo 550 Liquid handler (Labcyte) in black, clear bottom, TC-treated and sterile 384-well plates (3764, Corning). Growth medium consisted of RPMI 1640 GlutaMAX (61870, Gibco), 10% (v/v) FBS (10500, Gibco), and 1% (v/v) P/S (15070, Gibco). Induction medium consisted of RPMI 1640 GlutaMAX (61870, Gibco), 5% (v/v) FBS (10500, Gibco), and 1% (v/v) P/S (15070, Gibco). EC50 values were determined by fitting a four parameter sigmoidal curve model using XLfit (IDBS). Reported EC50 values are the mean of at least 3 independent measurements.

[2] = tested on: colorectal cancer patient-derived xenograft; conditions: colorectal cancer patient-derived xenograft mouse models; Ju et al. (2019); cited from earlier work
MTHFD2 [3] = molecular target: T1, MTHFD2; conditions: Fu et al. Nat. Commun. (2017); cited from earlier work

T1 sequence (P13995 36-350): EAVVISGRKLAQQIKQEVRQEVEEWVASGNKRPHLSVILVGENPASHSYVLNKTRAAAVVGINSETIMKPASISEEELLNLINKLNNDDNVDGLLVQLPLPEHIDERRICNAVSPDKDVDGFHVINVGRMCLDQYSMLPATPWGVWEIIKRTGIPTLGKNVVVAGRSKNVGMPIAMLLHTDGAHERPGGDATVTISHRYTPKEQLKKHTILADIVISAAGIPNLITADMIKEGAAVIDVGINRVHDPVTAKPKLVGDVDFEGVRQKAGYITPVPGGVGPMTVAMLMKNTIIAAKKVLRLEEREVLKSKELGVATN

Row | Structure (SMILES) | IC50 (MTHFD2 [1]) [nM] | EC50 (HL-60 cells) [nM] | tumor growth [2] | tumor weight [2] | inhibitor of human MTHFD2 (MTHFD2 [3])
1 | Nc1nc(N)c(NC(=O)Nc2ccc(C(=O)N[C@@H](CCC(=O)N[C@@H](CCC(=O)O)C(=O)O)C(=O)O)nc2)c(=O)[nH]1 [Example 23, (2S)-2-[(4S)-4-carboxy-4-[(5-{[(2,4-diamino-6-oxo-1,6-dihydropyrimidin-5-yl)carbamoyl]amino}pyridin-2-yl)formamido]butanamido]pentanedioic acid] | 43 | 835 | – | – | –
2 | Nc1nc(N)c(NC(=O)Nc2cnc(C(=O)N[C@@H](CCc3nnn[nH]3)C(=O)O)c(F)c2)c(=O)[nH]1 [Example 24, (2S)-2-[(5-{[(2,4-diamino-6-oxo-1,6-dihydropyrimidin-5-yl)carbamoyl]amino}-3-fluoropyridin-2-yl)formamido]-4-(1H-1,2,3,4-tetrazol-5-yl)butanoic acid] | 3 | 2 | – | – | –
3 | Nc1nc(N)c(NC(=O)Nc2ccc(C(=O)N[C@@H](CCC(=O)N[C@H](CCC(=O)O)C(=O)O)C(=O)O)nc2)c(=O)[nH]1 [Example 25, (2R)-2-[(4S)-4-carboxy-4-[(5-{[(2,4-diamino-6-oxo-1,6-dihydropyrimidin-5-yl)carbamoyl]amino}pyridin-2-yl)formamido]butanamido]pentanedioic acid] | 30 | 1940 | – | – | –
4 | Nc1nc(N)c(CC(=O)Nc2ccc(C(=O)N[C@@H](CCC(=O)O)C(=O)O)nc2Oc2ccccc2)c(=O)[nH]1 [Example 26, (2S)-2-((5-[2-(2,4-diamino-6-oxo-1,6-dihydropyrimidin-5-yl)acetamido]-6-phenoxypyridin-2-yl)formamido)pentanedioic acid] | 14 | 6190 | – | – | –
5 | Nc1nc(N)c(CC(=O)Nc2ccc(C(=O)N[C@@H](CCC(=O)O)C(=O)O)nc2-c2ccccc2)c(=O)[nH]1 [Example 27, (2S)-2-((5-[2-(2,4-diamino-6-oxo-1,6-dihydropyrimidin-5-yl)acetamido]-6-phenylpyridin-2-yl)formamido)pentanedioic acid] | 65 | 2770 | – | – | –
6 | Nc1nc(N)c(CC(=O)Nc2ccc(C(=O)N[C@@H](CCC(=O)N[C@@H](CCC(=O)O)C(=O)O)C(=O)O)nc2)c(=O)[nH]1 [Example 28, (2S)-2-[(4S)-4-carboxy-4-({5-[2-(2,4-diamino-6-oxo-1,6-dihydropyrimidin-5-yl)acetamido]pyridin-2-yl}formamido)butanamido]pentanedioic acid] | 92 | 22 | – | – | –
7 | COc1nc(C(=O)N[C@@H](CCC(=O)O)C(=O)O)ccc1NC(=O)Cc1c(N)nc(N)[nH]c1=O [Example 29, (2S)-2-({5-[2-(2,4-diamino-6-oxo-1,6-dihydropyrimidin-5-yl)acetamido]-6-methoxypyridin-2-yl}formamido)pentanedioic acid] | 44 | 1120 | – | – | –
8 | Nc1nc(N)c(CC(=O)Nc2cnc(C(=O)N[C@@H](CCC(=O)O)C(=O)O)c(C(F)(F)F)c2)c(=O)[nH]1 [Example 30, (2S)-2-((5-[2-(2,4-diamino-6-oxo-1,6-dihydropyrimidin-5-yl)acetamido]-3-(trifluoromethyl)pyridin-2-yl)formamido)pentanedioic acid] | 1100 | 161 | – | – | –
9 | CC(C)[C@H](NC(=O)c1ncc(NC(=O)Nc2c(N)nc(N)[nH]c2=O)cc1F)C(=O)O [Example 31, (2S)-2-[(5-{[(2,4-diamino-6-oxo-1,6-dihydropyrimidin-5-yl)carbamoyl]amino}-3-fluoropyridin-2-yl)formamido]-3-methylbutanoic acid] | 8 | 20 | – | – | –
10 | Nc1nc(N)c(CC(=O)Nc2cnc(C(=O)N[C@@H](CCc3nnn[nH]3)C(=O)O)c(F)c2)c(=O)[nH]1 [Example 32, (2S)-2-((5-[2-(2,4-diamino-6-oxo-1,6-dihydropyrimidin-5-yl)acetamido]-3-fluoropyridin-2-yl)formamido)-4-(1H-1,2,3,4-tetrazol-5-yl)butanoic acid] | 13 | 10 | – | – | –
11 | Nc1nc(N)c(CC(=O)Nc2cnc(C(=O)N[C@@H](Cc3ccccc3)C(=O)O)c(F)c2)c(=O)[nH]1 [Example 33, (2S)-2-((5-[2-(2,4-diamino-6-oxo-1,6-dihydropyrimidin-5-yl)acetamido]-3-fluoropyridin-2-yl)formamido)-3-phenylpropanoic acid] | 92 | 24 | – | – | –
12 | CC(C)[C@H](NC(=O)c1ncc(NC(=O)Cc2c(N)nc(N)[nH]c2=O)cc1F)C(=O)O [Example 34, (2S)-2-((5-[2-(2,4-diamino-6-oxo-1,6-dihydropyrimidin-5-yl)acetamido]-3-fluoropyridin-2-yl)formamido)-3-methylbutanoic acid] | 60 | 177 | – | – | –
13 | Nc1nc(N)c(NC(=O)Nc2cnc(C(=O)N[C@@H](Cc3ccccc3)C(=O)O)c(F)c2)c(=O)[nH]1 [Example 35, (2S)-2-[(5-{[(2,4-diamino-6-oxo-1,6-dihydropyrimidin-5-yl)carbamoyl]amino}-3-fluoropyridin-2-yl)formamido]-3-phenylpropanoic acid] | 5 | 20 | – | – | –
14 | Nc1nc2c(c(=O)[nH]1)N1C(=O)N(c3ccc(C(=O)N[C@@H](CCC(=O)O)C(=O)O)cc3)CC1CN2 (some centres unmarked) [LY345899] | – | – | statistically significantly suppresses tumor growth | decreases tumor weight | –
15 | CO[C@H](CC(=O)O)[C@@H](C)C(=O)[C@H](C)/C=C(\C)[C@H]1OC(=O)[C@H](O)[C@H](O)/C=C/[C@H](C)CCC[C@@H]1C [carolacton] | – | – | – | – | nanomolar inhibitor
